The source of these data is patent publication US11339181B2, “Crystalline forms of a Janus kinase inhibitor” (Japan Tobacco Inc., priority 2016, dated 2022).

The data set is described as follows: Solubility test (shaken at 20° C. for 3 hours, filtered, HPLC). It counts as physicochemical. To be noted: for Solubility / solubility at 3 h: 20° C., shaken 3 hours; for Solubility rank among Forms α, β, γ: in each solvent measured; for solubility at 3 h: 20 °C, thermodynamic from solid. The protocol:
Each sample (i.e., Forms α, β, and γ of Compound A) was weighed to a 4-mL-volume glass vial. A test solution (3 mL) was added to the vial and the mixture was suspended. About 150 mg of the sample was weighed for the test solution of the 1st fluid for solubility test of The Japanese Pharmacopoeia and about 15 mg was weighed for the test solutions of the 2nd fluid for solubility test of The Japanese Pharmacopoeia and water. Each mixture was shaken with a constant temperature incubator shaker (manufactured by TAITEC) at 20° C. for 3 hours. After being shaken, the supernatant was filtered through a polytetrafluoroethylene disk filter (Millex-LG; manufactured by Millipore) with the 0.2-μm pore size and 4-mm diameter. The measurement was performed by high-performance liquid chromatography (HPLC).

Where [1] appears, read: Solvent: JP 1st fluid for solubility test, pH about 1.2.
Where [2] appears, read: Solvent: JP 2nd fluid for solubility test (water / phosphate buffer pH 6.8, 1:1).

Each structure is given as a SMILES string. Converted amounts (≈) assume the structure as drawn.

Regarding `C[C@H]1CN(C(=O)CC#N)[C@]12CCN(c1ncnc3[nH]ccc13)C2` [Form β, 3-((3S,4R)-3-methyl-6-(7H-pyrrolo[2,3-d]pyrimidin-4-yl)-1,6-diazaspiro[3.4]octan-1-γ 1)-3-oxopropanenitrile], the Solubility is, setting by setting: under setting [1], 39100 µg/mL (≈ 126 mM); under setting [2], 2100 µg/mL (≈ 6.77 mM); (Solvent: Water) 2000 µg/mL (≈ 6.44 mM).
For `C[C@H]1CN(C(=O)CC#N)[C@]12CCN(c1ncnc3[nH]ccc13)C2` [Form γ, 3-((3S,4R)-3-methyl-6-(7H-pyrrolo[2,3-d]pyrimidin-4-yl)-1,6-diazaspiro[3.4]octan-1-γ 1)-3-oxopropanenitrile], the “Solubility rank among Forms α, β, γ” value is reported as “lowest solubility”. Further, the Solubility under setting [1] came to 36400 µg/mL (≈ 117 mM). The same molecule came in with a Solubility under setting [2] of 1500 µg/mL (≈ 4.83 mM). Moreover, the Solubility (Solvent: Water) came to 1500 µg/mL (≈ 4.83 mM).
As for `C[C@H]1CN(C(=O)CC#N)[C@]12CCN(c1ncnc3[nH]ccc13)C2` [Form α, 3-((3S,4R)-3-methyl-6-(7H-pyrrolo[2,3-d]pyrimidin-4-yl)-1,6-diazaspiro[3.4]octan-1-γ 1)-3-oxopropanenitrile], the “Solubility rank among Forms α, β, γ” value was “highest solubility”. Where the note is “JP 1st fluid for solubility test, pH 1.2, simulated gastric fluid, Solvent: JP 1st fluid for solubility test, pH about 1.2”, this molecule yielded a solubility at 3 h of 45000 µg/mL (≈ 145 mM). Further, the solubility at 3 h (JP 2nd fluid for solubility test, pH 6.8, aqueous buffer, Solvent: JP 2nd fluid for solubility test (water / phosphate buffer pH 6.8, 1:1)) turned out to be 2700 µg/mL (≈ 8.7 mM). For the same molecule, the solubility at 3 h (water, water, Solvent: Water) worked out at 2600 µg/mL (≈ 8.38 mM).

One may read the Solubility as the dissolved amount per volume that the medium holds. For orientation: solubility means the concentration that dissolves in the medium under given conditions.
